Measured values published in PubChem BioAssay AID1963838 (Molecular Pharmacology Branch, DTP, NCI, 2024).

System: 855422-203-R-J1-PDC complex spheroid viability
Assay: Anticancer human tumor 855422-203-R-J1-PDC patient-derived bladder carcinoma cell line growth inhibition [POLQ]
Settings: for IC50: curve of first compound; for viability, T/C: stronger effect = lower value
Outline: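 Patient-derived tumour cells were co-cultured with HUVEC and mesenchymal stem cells as multicellular spheroids at 37 °C. They were treated with POLQ inhibitors (novobiocin, ART-558, RP6685) alone or combined with other agents. Top concentrations were at or near clinical Cmax (otherwise 10 microM; SN-38 at 1 microM), decreasing in half-log steps.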

[1] = second compound 0.0316 µM, first compound 0.00316 µM
[2] = second compound 0.0316 µM, first compound 0.01 µM
[3] = second compound 0.0316 µM, first compound 0.0316 µM
[4] = second compound 0.0316 µM, first compound 0.1 µM
[5] = second compound 0.0316 µM, first compound 0.316 µM
[6] = second compound 0.0316 µM, first compound 1 µM
[7] = second compound 0.1 µM, first compound 0.00316 µM
[8] = second compound 0.1 µM, first compound 0.01 µM
[9] = second compound 0.1 µM, first compound 0.0316 µM
[10] = second compound 0.1 µM, first compound 0.1 µM
[11] = second compound 0.1 µM, first compound 0.316 µM
[12] = second compound 0.1 µM, first compound 1 µM
[13] = second compound 0.316 µM, first compound 0.00316 µM
[14] = second compound 0.316 µM, first compound 0.01 µM
[15] = second compound 0.316 µM, first compound 0.0316 µM
[16] = second compound 0.316 µM, first compound 0.1 µM
[17] = second compound 0.316 µM, first compound 0.316 µM
[18] = second compound 0.316 µM, first compound 1 µM
[19] = second compound 1 µM, first compound 0.00316 µM
[20] = second compound 1 µM, first compound 0.01 µM
[21] = second compound 1 µM, first compound 0.0316 µM
[22] = second compound 1 µM, first compound 0.1 µM
[23] = second compound 1 µM, first compound 0.316 µM
[24] = second compound 1 µM, first compound 1 µM
[25] = second compound 3.16 µM, first compound 0.00316 µM
[26] = second compound 3.16 µM, first compound 0.01 µM
[27] = second compound 3.16 µM, first compound 0.0316 µM
[28] = second compound 3.16 µM, first compound 0.1 µM
[29] = second compound 3.16 µM, first compound 0.316 µM
[30] = second compound 3.16 µM, first compound 1 µM
[31] = second compound 10 µM, first compound 0.00316 µM
[32] = second compound 10 µM, first compound 0.01 µM
[33] = second compound 10 µM, first compound 0.0316 µM
[34] = second compound 10 µM, first compound 0.1 µM
[35] = second compound 10 µM, first compound 0.316 µM
[36] = second compound 10 µM, first compound 1 µM
[37] = second compound 0.0316 µM, first compound 3.16 µM
[38] = second compound 0.0316 µM, first compound 10 µM
[39] = second compound 0.1 µM, first compound 3.16 µM
[40] = second compound 0.1 µM, first compound 10 µM
[41] = second compound 0.316 µM, first compound 3.16 µM
[42] = second compound 0.316 µM, first compound 10 µM
[43] = second compound 1 µM, first compound 3.16 µM
[44] = second compound 1 µM, first compound 10 µM
[45] = second compound 3.16 µM, first compound 3.16 µM
[46] = second compound 3.16 µM, first compound 10 µM
[47] = second compound 10 µM, first compound 3.16 µM
[48] = second compound 10 µM, first compound 10 µM
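Further: spheroids exposed to compounds for seven days before readout.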

## CCc1c2c(nc3ccc(O)cc13)-c1cc3c(c(=O)n1C2)COC(=O)[C@]3(O)CC + Nc1ccc(C#CCN(C(=O)Cc2ncc(C(F)(F)F)cc2C(F)(F)F)c2ccc(F)cc2)nn1
Second compound 0.0316 µM
  IC50: 7.28 nM
Second compound 0.1 µM
  IC50: 6.82 nM
Second compound 0.316 µM
  IC50: 7.42 nM
Second compound 1 µM
  IC50: 7.43 nM
Second compound 3.16 µM
  IC50: 5.79 nM
Second compound 10 µM
  IC50: 6.31 nM
[1]
  viability, T/C: 96.9%
[2]
  viability, T/C: 31.4%
[3]
  viability, T/C: 12.5%
[4]
  viability, T/C: 5.91%
[5]
  viability, T/C: 4.85%
[6]
  viability, T/C: 2.42%
[7]
  viability, T/C: 100%
[8]
  viability, T/C: 24.3%
[9]
  viability, T/C: 10.2%
[10]
  viability, T/C: 7.32%
[11]
  viability, T/C: 4.65%
[12]
  viability, T/C: 2.23%
[13]
  viability, T/C: 96.2%
[14]
  viability, T/C: 33.6%
[15]
  viability, T/C: 11.4%
[16]
  viability, T/C: 6.7%
[17]
  viability, T/C: 4.41%
[18]
  viability, T/C: 2.32%
[19]
  viability, T/C: 94.7%
[20]
  viability, T/C: 34.5%
[21]
  viability, T/C: 8.52%
[22]
  viability, T/C: 7.09%
[23]
  viability, T/C: 4.98%
[24]
  viability, T/C: 3.55%
[25]
  viability, T/C: 71.9%
[26]
  viability, T/C: 29.9%
[27]
  viability, T/C: 12.9%
[28]
  viability, T/C: 7.49%
[29]
  viability, T/C: 5.5%
[30]
  viability, T/C: 2.82%
[31]
  viability, T/C: 86.3%
[32]
  viability, T/C: 24.2%
[33]
  viability, T/C: 14.3%
[34]
  viability, T/C: 8.16%
[35]
  viability, T/C: 5.98%
[36]
  viability, T/C: 2.43%

## COc1cccc(OCCCN)c1-c1cc(Nc2cnc(C#N)cn2)n[nH]1 + Nc1ccc(C#CCN(C(=O)Cc2ncc(C(F)(F)F)cc2C(F)(F)F)c2ccc(F)cc2)nn1
Second compound 0.0316 µM
  IC50: 27.7 nM
Second compound 0.1 µM
  IC50: 31.9 nM
Second compound 0.316 µM
  IC50: 31.5 nM
Second compound 1 µM
  IC50: 25.2 nM
Second compound 3.16 µM
  IC50: 24.1 nM
Second compound 10 µM
  IC50: 24 nM
[1]
  viability, T/C: 111%
[2]
  viability, T/C: 197%
[3]
  viability, T/C: 36.6%
[4]
  viability, T/C: 11.9%
[5]
  viability, T/C: 7.2%
[6]
  viability, T/C: 6.13%
[7]
  viability, T/C: 106%
[8]
  viability, T/C: 196%
[9]
  viability, T/C: 50.3%
[10]
  viability, T/C: 10.7%
[11]
  viability, T/C: 6.14%
[12]
  viability, T/C: 5.3%
[13]
  viability, T/C: 113%
[14]
  viability, T/C: 176%
[15]
  viability, T/C: 49.8%
[16]
  viability, T/C: 11.1%
[17]
  viability, T/C: 7.07%
[18]
  viability, T/C: 6.94%
[19]
  viability, T/C: 105%
[20]
  viability, T/C: 148%
[21]
  viability, T/C: 31.3%
[22]
  viability, T/C: 9.99%
[23]
  viability, T/C: 7.86%
[24]
  viability, T/C: 7.5%
[25]
  viability, T/C: 107%
[26]
  viability, T/C: 178%
[27]
  viability, T/C: 21.6%
[28]
  viability, T/C: 15.9%
[29]
  viability, T/C: 7.71%
[30]
  viability, T/C: 6.25%
[31]
  viability, T/C: 100%
[32]
  viability, T/C: 161%
[33]
  viability, T/C: 24.6%
[34]
  viability, T/C: 8%
[35]
  viability, T/C: 9.72%
[36]
  viability, T/C: 7.4%

## Nc1ccn(C2OC(CO)C(O)C2(F)F)c(=O)n1 (stereo not drawn) + Nc1ccc(C#CCN(C(=O)Cc2ncc(C(F)(F)F)cc2C(F)(F)F)c2ccc(F)cc2)nn1
Second compound 0.0316 µM
  IC50: 61.9 nM
Second compound 0.1 µM
  IC50: 62.5 nM
Second compound 0.316 µM
  IC50: 82.3 nM
Second compound 1 µM
  IC50: 91.2 nM
Second compound 3.16 µM
  IC50: 207 nM
Second compound 10 µM
  IC50: 447 nM
[3]
  viability, T/C: 93.6%
[4]
  viability, T/C: 18.9%
[5]
  viability, T/C: 17.6%
[6]
  viability, T/C: 13.8%
[37]
  viability, T/C: 11%
[38]
  viability, T/C: 6.83%
[9]
  viability, T/C: 99.3%
[10]
  viability, T/C: 15.9%
[11]
  viability, T/C: 18.2%
[12]
  viability, T/C: 14.1%
[39]
  viability, T/C: 12.3%
[40]
  viability, T/C: 9.34%
[15]
  viability, T/C: 148%
[16]
  viability, T/C: 29.9%
[17]
  viability, T/C: 16%
[18]
  viability, T/C: 18.6%
[41]
  viability, T/C: 11.3%
[42]
  viability, T/C: 8.21%
[21]
  viability, T/C: 136%
[22]
  viability, T/C: 42.2%
[23]
  viability, T/C: 16.8%
[24]
  viability, T/C: 14.5%
[43]
  viability, T/C: 11.3%
[44]
  viability, T/C: 10.8%
[27]
  viability, T/C: 118%
[28]
  viability, T/C: 103%
[29]
  viability, T/C: 19.4%
[30]
  viability, T/C: 16.3%
[45]
  viability, T/C: 14.8%
[46]
  viability, T/C: 11.8%
[33]
  viability, T/C: 105%
[34]
  viability, T/C: 210%
[35]
  viability, T/C: 63.6%
[36]
  viability, T/C: 23%
[47]
  viability, T/C: 18.2%
[48]
  viability, T/C: 14.1%

## O=C(c1cc(Cc2n[nH]c(=O)c3ccccc23)ccc1F)N1CCN(C(=O)C2CC2)CC1 + Nc1ccc(C#CCN(C(=O)Cc2ncc(C(F)(F)F)cc2C(F)(F)F)c2ccc(F)cc2)nn1
Second compound 0.0316 µM
  IC50: > 10000 nM
Second compound 0.1 µM
  IC50: > 10000 nM
Second compound 0.316 µM
  IC50: > 10000 nM
Second compound 1 µM
  IC50: > 10000 nM
Second compound 3.16 µM
  IC50: > 10000 nM
Second compound 10 µM
  IC50: > 10000 nM
[3]
  viability, T/C: 97.5%
[4]
  viability, T/C: 126%
[5]
  viability, T/C: 104%
[6]
  viability, T/C: 98%
[37]
  viability, T/C: 94%
[38]
  viability, T/C: 150%
[9]
  viability, T/C: 95%
[10]
  viability, T/C: 132%
[11]
  viability, T/C: 113%
[12]
  viability, T/C: 90.8%
[39]
  viability, T/C: 125%
[40]
  viability, T/C: 119%
[15]
  viability, T/C: 91.6%
[16]
  viability, T/C: 128%
[17]
  viability, T/C: 96.9%
[18]
  viability, T/C: 98.8%
[41]
  viability, T/C: 129%
[42]
  viability, T/C: 162%
[21]
  viability, T/C: 98.7%
[22]
  viability, T/C: 113%
[23]
  viability, T/C: 105%
[24]
  viability, T/C: 109%
[43]
  viability, T/C: 121%
[44]
  viability, T/C: 163%
[27]
  viability, T/C: 97.6%
[28]
  viability, T/C: 114%
[29]
  viability, T/C: 100%
[30]
  viability, T/C: 107%
[45]
  viability, T/C: 105%
[46]
  viability, T/C: 134%
[33]
  viability, T/C: 99.4%
[34]
  viability, T/C: 102%
[35]
  viability, T/C: 123%
[36]
  viability, T/C: 99.6%
[47]
  viability, T/C: 113%
[48]
  viability, T/C: 109%
